Data on one compound can be found in ChEMBL document CHEMBL1146401, “A bioactive seco-rosane diterpenoid from Vellozia candida” (1997).

Test [1] has as its system Saccharomyces cerevisiae. The test is described as follows: DNA damaging activity against DNA repair-deficient Saccharomyces cerevisiae RS 322YK (rad 52Y) mutant assessed as drug level required to produce 12 mm zone of inhibition after 48 hrs. The test is classed as functional.
Test [2] has as its system Saccharomyces cerevisiae. The test is described as follows: DNA damaging activity against DNA […] Saccharomyces cerevisiae RS 188N (RAD+) mutant assessed as drug level required to produce 12 mm zone of inhibition after 48 hrs. The test is classed as functional.

As for `C=C[C@@]1(C)C[C@@H]2OC(=O)C3=C(CCCC3(C)C)[C@@]2(C)[C@H](C(=O)O)C1` [CANDIDALACTONE], the Activity is 87 µg/mL in the test with Saccharomyces cerevisiae [1] and greater than 200 µg/mL in the test on Saccharomyces cerevisiae [2].
